In US7776833B2, “Use of cyclic bioisosters of purine system derivatives for treating diseases produced by disorders of niterergic and dopaminergic systems” (priority 2003, dated 2010):

Experiments:
Assay type in all cases: in vivo, Wistar rats
[1] = tested on: physical dependence from morphine (morphine abstinence); assay: Morphine abstinence syndrome, signs scored in the open field test; details: Morphine − (morphine + compound); compound 3 x 20 mg/kg intramuscularly; one value for the three compounds
Method: Thirty six hours after the last injection selected motor and autonomice parameters which are specific symptoms of abstinence were monitored in the <<open field>> test (an arena with a diameter of 120 cm and wall height of 40 cm).
Med., 2002, V.29, p.1-6.). The observable signs were recorded quantitatively (if it was possible) with further assignment of an index to each sign (depending on the specific feature of the sign) and calculation of the sum of scores. The expression of the abstinence syndrome was presented as a sum of scores. The results were processed using nonparametric statistical analysis based on the Mann-Whitney test.

[2] = tested on: nitrites and nitrates (NOx-); assay: Measurement of nitrates/nitrites (NOx-) in brain regions after the morphine abstinence experiment; details: 3 x 20 mg/kg intramuscularly
Method: (§1) After the above experiments the rat brains were isolated and immediately placed in the ice cold 0.9% solution of sodium chloride. After cooling the following structures were isolated from the brain: cerebral cortex, hippocampus, mesencephalon, striatum, brainstem, hypothalamus and cerebellum. The isolated tissue was homogenized in a Potter S homogenizer for 3 minutes at 1500 rpm in 4-5 volumes of 20 mM HEPES (pH 7.5) at 4° C. The supernatants were centrifuged for 30 minutes at 11000 g at 4° C., and aliquots of the obtained supernatants were taken for determining nitrates and nitrites (NOx-), while the remaining part was mixed with cooled 20 mM of HEPES (pH 7.5), containing 0.5 mM ethylenediamine tetraacetate (EDTA), 1 mM dithiotreitol (DDT), 1 mM phenylmethylsulfonyl fluoride (PMSF), aprotinine and leupeptine at a concentration of 5 μg/ml, this mixture being used for determining nitric oxide synthase (NOS) activity.
To estimate the intensity of metabolism of nitric oxide in rats, quantitative determination of stable metabolites of nitrogen oxide-nitrites and nitrates (NOx-) was performed using a fluorometric method by fluorescence of naphthotriazole, a product of reaction of 2,3- diaminonaphthalene (DAN) and nitrite in an acidic medium (Misko T. R., Schilling R. J., Salvemini D. et al. A fluorometric assay for the measurement of nitrite in biological samples. Anal. Biochem., 1993, V. 214, p.11-16) with modifications (Lei B., Adachi N., Nagaro T., Arai T. Measurement of total nitric oxide metabolite (NO (x) (-)) levels in vivo. Brain. Res. Protoc., 1999, V. 4, p. 415-419).
The supernatants of brain deproteinized at 100° C. were placed in a nitrite recovery system containing 0.125 unit/ml of nitrate reductase, 25 μM NADPH and 25 μM FAD prepared in 20 mM Tris-HCl buffer pH 7.6 and incubated for 30 minutes at 37° C. For oxidation of NADPH a lactate dehydrogenase (LDH)/pyruvate system was used. Then 316.0 μM DAN solution in 0.62 M HCl was added and the mixture was incubated for 10 minutes in dark. For stabilization of fluorescence of the formed naphthotriazole, 280 mM NaOH was added. The fluorescence intensity was measured using spectrofluorometer Hitachi F-3000 at a wavelength of excitation 365 nm and emission 405 nm. To calculate the concentration of NOx- in the brain a standard solution of sodium nitrate was used. The concentration of NOx- was expressed in nmol/mg of protein.
(§2) The content of protein in the samples was determined by the Bradford method (Bradford M. M. A rapid and sensitive method for quantitation of microgram quantities of protein using the principle of protein binding . Anal. Biochem., 1976, V. 72, p. 248-254) using Coumassi dye. The statistical analysis was performed using methods appropriate for respective experiments. The data are expressed as mean±standard error of mean.

[3] = tested on: nitric oxide synthase (NOS); assay: Nitric oxide synthase activity in brain regions, radiometric [3H]L-citrulline method; details: 3 x 20 mg/kg intramuscularly
Method: as §1
The activity of nitric oxide synthase (NOS) was determined using a radiometric method by the rate of L-citrulline accumulation in a reaction of [^3H] L-arginine oxidation catalyzed by NOS (Bredt M., Snyder S. Nitric oxide mediates glutamate-linked enhancement of cGMP levels in the cerebellum. Proc. Natl. Acad. Sci., USA, 1989, V.86, p.9030-9033). The formation of L-citrulline in this reaction is equivalent to a biosynthesis of nitric oxide.
The reaction was initiated by adding brain supernatant in the reaction medium containing 2 μCi/ml of [3H] L-arginine, 20 mM HEPES (pH 7.4), 0.2 mM CaCl2, 5 μM FAD, 5 μM FMN, 1 mM NADPH, 50 μM of BH4. After 15-60 minutes of incubation at 37° C. a suspension of Dowex 50WX8-400 (Na^+-form), which sorbs unreacted [^3H]L-arginine, but not [^3H] L-citrulline was added to the samples. After the sorption the radioactivity of the samples was determined on a scintillation counter SL-4000 (“Intertechnique”). The activity of Ca^2+-dependent and Ca^2+-independent NOS isoforms was determined by the difference of rates of [^3H]L-citrulline formation in three parallel samples containing 2 mM EDTA (Ca^2+ chelator), 2 mM EDTA+2 mM L-NAME (inhibitor all NOS isoforms) or without inhibitors. The enzyme activity was expressed in rnol [^3H]L-citrulline acumulated per 1 minute on 1 mg of supernatant protein.
as §2

[4] = Groups Nos. 3-14, compound without morphine, one value for all 12 compounds
[5] = Morphine + compound, one value for the three compounds

SMILES	Authentic differences (ξ-square criterion) in appearance of signs of abstinence: <<Wet dog>> shakes [1]	Authentic differences (ξ-square criterion) in appearance of signs of abstinence: Aggression [1]	Authentic differences (ξ-square criterion) in appearance of signs of abstinence: Convulsions [1]	Authentic differences (ξ-square criterion) in appearance of signs of abstinence: Diarrhea [1]	Authentic differences (ξ-square criterion) in appearance of signs of abstinence: Dyspnea [1]	Authentic differences (ξ-square criterion) in appearance of signs of abstinence: Forelimb jogging [1]	Authentic differences (ξ-square criterion) in appearance of signs of abstinence: Grit with teeth [1]	Authentic differences (ξ-square criterion) in appearance of signs of abstinence: Mastication [1]	Authentic differences (ξ-square criterion) in appearance of signs of abstinence: Piloerection [1]	Authentic differences (ξ-square criterion) in appearance of signs of abstinence: Ptosis [1]	Authentic differences (ξ-square criterion) in appearance of signs of abstinence: Rhinorrhea [1]	Authentic differences (ξ-square criterion) in appearance of signs of abstinence: Squeak when touched [1]	Nitrites, brainstem [2, 4]	Nitrites, cerebellum [2, 4]	Nitrites, cerebral cortex [2, 4]	Nitrites, hippocampus [2, 4]	Nitrites, hypothalamus [2, 4]	Nitrites, midbrain [2, 4]	Nitrites, striatum [2, 4]	Nitrites, brainstem [2, 5]	further results
O=c1[nH][nH]c(=O)c2ncccc12.[Li] [Compound 6, lithium salt of pyrido [2,3-d]-6H-pyridazine-5,8-dione]	1.0000	0.8327	0.7821	0.0046	0.0722	0.7821	0.7144	0.1888	0.1847	0.0201	0.3017	0.1888	6.31 ± 0.58 nmol/mg of protein	6.66 ± 0.63 nmol/mg of protein	4.31 ± 0.37 nmol/mg of protein	6.47 ± 0.72 nmol/mg of protein	6.77 ± 0.83 nmol/mg of protein	6.65 ± 0.70 nmol/mg of protein	6.11 ± 0.29 nmol/mg of protein	6.57 ± 0.72 nmol/mg of protein	Nitrites, cerebellum [2, 5]: 5.46 ± 0.44 nmol/mg of protein; Nitrites, cerebral cortex [2, 5]: 4.72 ± 0.37 nmol/mg of protein; Nitrites, hippocampus [2, 5]: 5.44 ± 0.43 nmol/mg of protein; Nitrites, hypothalamus [2, 5]: 6.57 ± 0.88 nmol/mg of protein; Nitrites, midbrain [2, 5]: 5.50 ± 0.48 nmol/mg of protein; Nitrites, striatum [2, 5]: 3.57 ± 0.42 nmol/mg of protein; Activity of NOS, hippocampus [3, 4]: 3.09 ± 0.16 nmol/min/mg of protein; Activity of NOS, hypothalamus [3, 4]: 5.45 ± 0.24 nmol/min/mg of protein; Activity of NOS, midbrain [3, 4]: 2.60 ± 0.29 nmol/min/mg of protein; Activity of NOS, striatum [3, 4]: 1.26 ± 0.08 nmol/min/mg of protein; Activity of NOS, hippocampus [3, 5]: 2.70 ± 0.14 nmol/min/mg of protein; Activity of NOS, hypothalamus [3, 5]: 5.26 ± 0.28 nmol/min/mg of protein; Activity of NOS, midbrain [3, 5]: 1.83 ± 0.23 nmol/min/mg of protein; Activity of NOS, striatum [3, 5]: 1.24 ± 0.08 nmol/min/mg of protein
Nc1cccc2c(=O)n([C@@H]3O[C@H](CO)[C@@H](O)[C@H]3O)[nH]c(=O)c12.[Na] [Compound 10, sodium salt of 5-amino-2-(β-D-ribofuranosile)benzo[d]-3H-pyridazine-1,4-dione]	0.7562	0.8456	0.7546	0.0032	0.0834	0.8217	0.8652	0.1032	0.2567	0.0320	0.4032	0.1342	6.31 ± 0.58 nmol/mg of protein	6.66 ± 0.63 nmol/mg of protein	4.31 ± 0.37 nmol/mg of protein	6.47 ± 0.72 nmol/mg of protein	6.77 ± 0.83 nmol/mg of protein	6.65 ± 0.70 nmol/mg of protein	6.11 ± 0.29 nmol/mg of protein	6.99 ± 0.82 nmol/mg of protein	Nitrites, cerebellum [2, 5]: 5.85 ± 0.47 nmol/mg of protein; Nitrites, cerebral cortex [2, 5]: 4.93 ± 0.39 nmol/mg of protein; Nitrites, hippocampus [2, 5]: 5.24 ± 0.49 nmol/mg of protein; Nitrites, hypothalamus [2, 5]: 6.91 ± 0.58 nmol/mg of protein; Nitrites, midbrain [2, 5]: 5.75 ± 0.39 nmol/mg of protein; Nitrites, striatum [2, 5]: 3.57 ± 0.42 nmol/mg of protein; Activity of NOS, hippocampus [3, 4]: 3.09 ± 0.16 nmol/min/mg of protein; Activity of NOS, hypothalamus [3, 4]: 5.45 ± 0.24 nmol/min/mg of protein; Activity of NOS, midbrain [3, 4]: 2.60 ± 0.29 nmol/min/mg of protein; Activity of NOS, striatum [3, 4]: 1.26 ± 0.08 nmol/min/mg of protein; Activity of NOS, hippocampus [3, 5]: 2.51 ± 0.19 nmol/min/mg of protein; Activity of NOS, hypothalamus [3, 5]: 5.36 ± 0.33 nmol/min/mg of protein; Activity of NOS, midbrain [3, 5]: 1.99 ± 0.29 nmol/min/mg of protein; Activity of NOS, striatum [3, 5]: 1.29 ± 0.09 nmol/min/mg of protein
